Source: US12509653B2, “Organ chip to model mammalian joint” (University of Pittsburgh—Of the Commonwealth System of …, priority 2017, dated 2025)

Assays:
[1] = tested on: chondrocytes and osteoblasts in the bioreactor; experiment: RT-PCR marker expression in cartilage and bone chambers of the bioreactor under hormone stimulation; assay type: cell-based; conditions: progesterone progressively added to estradiol (week 3 and 4); higher when hormones directly applied to cartilage
Description: Differential expression of markers (as determined by RT-PCR) was evaluated in a control medium that contained no estrogen or progesterone (first bar), and then different concentrations of hormones supplied to the chambers during week 1 (w1: 0.1 nM estradiol), week 2 (w2: 1 nM estradiol), week 3 (w3: 1 nM estradiol and 10 nM progesterone), and week 4 (w4: 0.1 nM estradiol and 50 nM progesterone). Differential expression of markers was determined in a control medium that contained no estrogen or progesterone (first bar), and then different concentrations of hormones supplied to the cartilage chamber during week 1 (w1: 0.1 nM estradiol), week 2 (w2: 1 nM estradiol), week 3 (w3: 1 nM estradiol and 10 nM progesterone), and week 4 (w4: 0.1 nM estradiol and 50 nM progesterone).

synovial cells (SM) = experiment: IL-1β stimulation of synovial cells in the microJoint (OA model), gene expression; assay type: cell-based, human; conditions: 10 ng/mL, 24 h
Description: To model OA in the microJoint, the pro-inflammatory cytokine interleukin (IL)-1β (10 ng/mL) was used to stimulate synovial cells for 24 h. Afterwards, IL-1β was withdrawn and inflamed synovium-conditioned medium was perfused through cartilage and FP tissues. […] M0/M1 macrophages can be introduced into the different tissues to investigate their interactions with other cells and implications on OA pathologies.
Different engineered joint tissues, including osteochondral complex (bone and cartilage), synovium, and fat pad were prepared as modules for convenient integration in the bioreactor. After maturation, they were integrated into a bioreactor (FIG. 28). Their interconnection was guided via directional fluidic flow of the culture medium to simulate in vivo physiology (FIG. 29). The bioreactors and accessories were manufactured by 3D printing. Micro-tissues were engineered by encapsulating P5 human MSCs in UV-photocrosslinked 15% methacrylated gelatin (GelMA), and differentiating and maturing them in different types of induction media. The health of individual tissues was assessed by real-time polymerase chain reaction (RT-PCR), histology and enzyme-linked immunosorbent assay (ELISA).

How did the “cartilage anabolic markers, progesterone added” value [1] turn out when `CC(=O)[C@H]1CC[C@H]2[C@@H]3CCC4=CC(=O)CC[C@]4(C)[C@H]3CC[C@]12C` [progesterone] was run?
Its value is “downregulation is still present”.

With “IL-1β: pro-inflammatory cytokine interleukin (IL)-1β used to stimulate synovial cells” as the molecule, how does the “expression levels of major catabolic genes in SM” value (synovial cells (SM)) read?
The value was “significantly upregulated”.
